Test results reported in patent publication US6051406A, “Keratan sulfate 6-sulfotransferase and DNA coding for the same” (Seikagaku Kogyo Kabushiki Kaish, priority 1996, dated 2000).

How the values were obtained:
[1] = target: T1, partially purified KSST (KSGal6ST) (Homo sapiens, UniProt O43916); test: Effect of added salts and dithiothreitol on KSST activity (Reaction Mixture II); assay type: biochemical; parameters: made in house; host or cells: COS-7 cells transfected with pCXNKSST (pCXN2 vector); extract partially purified over DEAE-Sephadex A-50 (non-adsorbed fraction) and Heparin-Sepharose CL-6B; conditions: for Sulfotransferase activity with added salt: salt at final concentration of 5 mM instead of CaCl2, keratan sulfate receptor, Reaction Mixture II
T1 sequence (O43916 1-411): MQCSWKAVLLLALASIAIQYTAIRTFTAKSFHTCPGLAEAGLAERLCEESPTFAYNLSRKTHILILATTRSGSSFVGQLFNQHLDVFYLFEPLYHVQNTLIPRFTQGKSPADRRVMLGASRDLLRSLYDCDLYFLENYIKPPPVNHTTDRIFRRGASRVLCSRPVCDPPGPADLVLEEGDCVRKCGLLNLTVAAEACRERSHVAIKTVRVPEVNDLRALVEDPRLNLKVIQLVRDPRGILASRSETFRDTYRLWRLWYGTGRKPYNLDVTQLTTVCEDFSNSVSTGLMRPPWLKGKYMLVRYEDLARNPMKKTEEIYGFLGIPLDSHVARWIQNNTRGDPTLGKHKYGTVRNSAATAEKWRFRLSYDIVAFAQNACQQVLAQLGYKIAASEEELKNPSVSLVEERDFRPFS
Procedure: (§5) Characterization of the KSST partially purified as described above was performed.

[2] = tested on: crude extract of COS-7 cells with pCXNKSST introduced; test: Sulfotransferase activity for various glycosaminoglycan receptors, crude extract (Reaction Mixture II); assay type: biochemical; conditions: 25 nmol glycosaminoglycan as receptor
Procedure: (§1) Activity for various kinds of glycosaminoglycans as the substrate was assayed by using 25 nmol (as galactosamine for chondroitin sulfate (A and C) and dermatan sulfate, and as glucosamine for keratan sulfate and CDSNS-heparin (completely desulfated, N-sulfated heparin, available from Seikagaku Corp.)) of glycosaminoglycan instead of keratan sulfate.
(§2) In the above both cases, the reaction mixtures were incubated at 37° C. for 20 minutes, and the reaction was stopped by immersing reaction tubes into boiling water for one minute.
(§3) After stopping the reaction, 0.1 μmol (as glucuronic acid) of chondroitin sulfate A was added as a carrier, and 3 volumes of ethanol containing 1.3% potassium acetate was added to the reaction mixture to precipitate ^35 S-labeled polysaccharide. The reaction mixture was centrifuged at 10,000×g for 10 minutes, and the resulting precipitates were dissolved in 70 μl of water. The resulting solution (50 μl) was loaded on a desalting column equilibrated with 0.1 M NH4 HCO3, and the eluted fractions containing the ^35 S-labeled polysaccharide were collected. Scintillation cocktail (1 ml, Clearsol, Nakarai Tesque) was added to 200 μl of each of the obtained fractions, and incorporation of ^35 S into the polysaccharide was determined by assaying ^35 S-radioactivity. Activity catalyzing transfer of 1 pmol sulfate group/minute was defined as 1 unit.
(§4) The adsorbed fraction was eluted with Buffer A containing 0.5 M NaCl, and the eluate was dialyzed against Buffer A containing 50 mM NaCl. The dialysate was used as KSST not containing CST. […] For the activity assay, 25 nmol (as galactosamine for chondroitin, chondroitin sulfate A, chondroitin sulfate C and dermatan sulfate, and as glucosamine for keratan sulfate and CDSNS-heparin) of glycosaminoglycan was used instead of the keratan sulfate contained in the standard reaction mixture.

[3] = target: T1, partially purified KSST (KSGal6ST); test: Sulfotransferase activity for various glycosaminoglycan receptors, partially purified KSST (Reaction Mixture II); assay type: biochemical; parameters: made in house; host or cells: COS-7 cells transfected with pCXNKSST (pCXN2 vector); extract partially purified over DEAE-Sephadex A-50 (non-adsorbed fraction) and Heparin-Sepharose CL-6B; conditions: for Sulfotransferase activity, Partially purified product: 25 nmol glycosaminoglycan as receptor, Reaction Mixture II, after Heparin-Sepharose CL-6B; for sulfotransferase activity for this receptor relative to keratan sulfate sulfotransferase activity after the purification: partially purified product
Procedure: as §1, §2, §3
Homogenate of COS-7 cells with pCXNKSST introduced from 80 dishes (224 mg as protein) was applied to a DEAE-Sephadex A-50 column (Pharmacia, 2.2×13 cm) equilibrated with Buffer A. The column was washed with 500 ml of Buffer A , and then the adsorbed fraction was eluted with Buffer A containing 0.5 M NaCl.
as §4

[4] = target: T1, partially purified KSST (KSGal6ST); conditions: read-out: Km value for PAPS (sulfate group donor)
Procedure: as §5

[5] = tested on: sulfotransferase activity; test: Sulfotransferase activity of pCXNKSST-transfected COS-7 cells with other sulfate group receptors; assay type: cell-based; conditions: COS-7 cells with KSST cDNA in the correct direction, substance used as sulfate group receptor
Excerpt: This cDNA was introduced into a plasmid (pCXN2) (a recombinant plasmid where the direction of the promoter is conformed with that of the cDNA was designated as pCXNKSST, and recombinant plasmid where the cDNA was inserted in a reversed direction was designated as pCXNKSST2), and COS-7 cells were transfected with the obtained plasmids by the method described above. […] When dermatan sulfate, heparan sulfate, or completely desulfated, N-sulfated heparin (CDSNS-heparin) was used as the sulfate group receptor, no increase of sulfotransferase activity was observed.

[6] = substrate: Nc1ncnc2c1ncn2[C@@H]1O[C@H](COP(=O)(O)OS(=O)(=O)O)[C@@H](OP(=O)(O)O)[C@H]1O; test: purified protein, by the assay type

[Cl-].[Cl-].[Mg+2] [MgCl2]
Sulfotransferase activity with added salt [1]: 18.8 pmol/minute/mg protein

Keratan sulfate
Sulfotransferase activity, Crude extract [2]: 0.168 pmol/minute/mg protein × 10^-2
Sulfotransferase activity, Partially purified product [3]: 2.51 pmol/minute/mg protein × 10^-2

[Cl-].[Cl-].[Sr+2] [SrCl2]
Sulfotransferase activity with added salt [1]: 21.6 pmol/minute/mg protein

Nc1ncnc2c1ncn2[C@@H]1O[C@H](COP(=O)(O)OS(=O)(=O)O)[C@@H](OP(=O)(O)O)[C@H]1O [PAPS, 3'-phosphoadenosine 5'-phosphosulfate]
Km [4]: ~0.2 µM

O[C@H](CS)[C@H](O)CS (racemic) [Dithiothreitol]
effect on KSST activity ([1]; concentration up to 10 mM): did not affect the KSST activity

completely desulfated, N-sulfated heparin [CDSNS-heparin]
increase of sulfotransferase activity with this sulfate group receptor [5]: no increase
Sulfotransferase activity, Crude extract [2]: 0.109 pmol/minute/mg protein × 10^-2
Sulfotransferase activity, Partially purified product [3]: 0.05 pmol/minute/mg protein × 10^-2
sulfotransferase activity for this receptor relative to keratan sulfate sulfotransferase activity after the purification [3]: ≤ 2%

O=S(=O)([O-])[O-].[Fe+2] [FeSO4]
Sulfotransferase activity with added salt [1]: 3.0 pmol/minute/mg protein

[Cl-].[Cl-].[Zn+2] [ZnCl2]
Sulfotransferase activity with added salt [1]: 1.5 pmol/minute/mg protein

Chondroitin
Sulfotransferase activity, Crude extract [2]: 0.016 pmol/minute/mg protein × 10^-2
Sulfotransferase activity, Partially purified product [3]: 0.03 pmol/minute/mg protein × 10^-2
sulfotransferase activity for this receptor relative to keratan sulfate sulfotransferase activity after the purification [3]: ≤ 2%

heparan sulfate
increase of sulfotransferase activity with this sulfate group receptor [5]: no increase

Protamine Chloride
Sulfotransferase activity with added salt [1]: 8.8 pmol/minute/mg protein

[Cl-].[Cl-].[Co+2] [CoCl2]
Sulfotransferase activity with added salt [1]: 24.6 pmol/minute/mg protein

[Cl][Cu][Cl] [CuCl2]
Sulfotransferase activity with added salt [1]: 10.0 pmol/minute/mg protein

[Cl][Mn][Cl] [MnCl2]
Sulfotransferase activity with added salt [1]: 28.0 pmol/minute/mg protein
effect on KSST activity ([1]; salts at 5 mM): most strongly enhanced the KSST activity

Dermatan sulfate
increase of sulfotransferase activity with this sulfate group receptor [5]: no increase
Sulfotransferase activity, Crude extract [2]: 0.005 pmol/minute/mg protein × 10^-2
Sulfotransferase activity, Partially purified product [3]: 0.02 pmol/minute/mg protein × 10^-2

Chondroitin sulfate A
Sulfotransferase activity, Crude extract [2]: 0.009 pmol/minute/mg protein × 10^-2
Sulfotransferase activity, Partially purified product [3]: 0.03 pmol/minute/mg protein × 10^-2

Chondroitin sulfate C
Sulfotransferase activity, Crude extract [2]: 0.005 pmol/minute/mg protein × 10^-2
Sulfotransferase activity, Partially purified product [3]: 0.02 pmol/minute/mg protein × 10^-2

[Cl][Ni][Cl] [NiCl2]
Sulfotransferase activity with added salt [1]: 10.0 pmol/minute/mg protein

[Ca+2].[Cl-].[Cl-] [CaCl2]
optimum concentration for KSST activity [1]: about 10 mM
Sulfotransferase activity with added salt [1]: 26.2 pmol/minute/mg protein
effect on KSST activity ([1]; salts at 5 mM): most strongly enhanced the KSST activity

[Ba+2].[Cl-].[Cl-] [BaCl2]
Sulfotransferase activity with added salt [1]: 21.0 pmol/minute/mg protein

B1: partially purified KSST (KSGal6ST) (Homo sapiens) (protein)
chain: MQCSWKAVLLLALASIAIQYTAIRTFTAKSFHTCPGLAEAGLAERLCEESPTFAYNLSRKTHILILATTRSGSSFVGQLFNQHLDVFYLFEPLYHVQNTLIPRFTQGKSPADRRVMLGASRDLLRSLYDCDLYFLENYIKPPPVNHTTDRIFRRGASRVLCSRPVCDPPGPADLVLEEGDCVRKCGLLNLTVAAEACRERSHVAIKTVRVPEVNDLRALVEDPRLNLKVIQLVRDPRGILASRSETFRDTYRLWRLWYGTGRKPYNLDVTQLTTVCEDFSNSVSTGLMRPPWLKGKYMLVRYEDLARNPMKKTEEIYGFLGIPLDSHVARWIQNNTRGDPTLGKHKYGTVRNSAATAEKWRFRLSYDIVAFAQNACQQVLAQLGYKIAASEEELKNPSVSLVEERDFRPFS
Km [6]: 0.2 µM
